{"source": "patent EP2326328B1", "about": "“USE OF DIHYDRALAZINE FOR THE TREATMENT OF DISEASES RELATED TO ELEVATED SEMICARBAZIDE SENSITIVE AMINE-OXIDASE (SSAO) ACTIVITY” (Semmelweis Egyetem, priority 2008, dated 2010)", "assay": "blood pressure and pulse of treated type 2 diabetic patients", "format": "in vivo, human", "settings": "type 2 diabetic patients, oral 14.5 mg dihydralazine sulphate twice daily", "experimental": "After giving their informed consent, patients participating in the study were treated for 56 days taking ½ tablet twice daily of a pharmaceutical composition containing 28.9 mg dihydralazine sulphate (i.e. the ½ tablet contained 14.5 mg dihydralazine sulphate).\nTo measure the efficacy and monitor the safety of the treatment, the following examinations were carried out before starting the treatment and at the 1., 7., 14., 28. and 56. day of the treatment: • 1. ocular examinations: visual acuity (ETDRS chart), slit-lamp examination, measurement of intraocular pressure with applanation tonometry, fundus biomicroscopy with pupil dilation, digital fundus photography. The grade of macular edema was determined via measuring retinal thickness with optical coherency tomography (OCT). • 2. internal medicine examinations: anamnesis, physical examinations, blood pressure, pulse, urine examination. • 3. laboratory examinations: blood glucose, HbA1c, liver function, kidney function, microalbuminuria, metabolic panel of the blood , lipids, CRP.\nIn the table the following abbreviations were used: • BMI: body mass index - weight (kg) / height (m^2) • RRsyst: blood pressure (systolic) (Hgmm) • RRdiast: blood pressure (diastolic) (Hgmm) • OCT CST (central subfield thickness): the average thickness of the central 1-mm area of the macula • OCT CPT (center point thickness): the thickness of the center point of the retina; normally that is the thinnest point of the macula Table 4.", "data": [{"substance": "dihydralazine sulphate", "values": [{"measurement": "blood pressure", "result": "no appreciable lowering of blood pressure was observed"}]}]}
